The values below come from patent US11225465B2, “Albicidin derivatives, their use and synthesis” (TECHNISCHE UNIVERSITÄT BERLIN, priority 2017, dated 2022).

Structures are written as SMILES. Converted amounts (≈) assume the structure as drawn.

Holding throughout (format): cell-based
One assay deals with Bacillus subtilis DSM10. The assay is described as follows: Microdilution assay, MIC. The following applies: DSM10, 20 h, read-out: MIC B. subtilis DSM10. Here is the method: (§1) The tests were performed using the micro dilution method.
(§2) The determination of MIC values was performed according to the ninth edition of the Approved Standard M07-A9 (CLSI. Methods for Dilution Antimicrobial Susceptibility Tests for Bacteria That Grow Aerobically; Approved Standard—Ninth Edition. CLSI document M07-A9. Wayne, Pa.: Clinical and Laboratory Standards Institute; 2012.)
(§3) The test was carried out for four different bacterial strains (E. coli DSM 1116 [gram negative], B. subtilis DSM 10 [gram positive], M. luteus DSM 1790 [gram positive], S. typhimurium TA100 [gram negative]). 20 μL of cryo stock of each strain were inoculated in 20 mL of LB media (Lysogeny broth: 10 g/L peptone, 5 g/L yeast extract, 5 g/L NaCl) followed by incubation over night at 37° C., 200 rpm. The test inoculum was adjusted by the 0.5 McFarland Standard (OD625 from 0.08 to 0.1). Within 15 min of preparation, the adjusted inoculum suspension was diluted in MHBII media (BBL T M Mueller-Hinton Broth II, Becton, Dickinson and Company, N.J./USA) so that each well contained approximately 5×10^5 CFU/mL in a final volume of 100 μL. 95 μL of the inoculum were applied per well and 5 μL of the (diluted) antibiotic substance were added.
(§4) Previously the dry antibiotic compounds were dissolved in DMSO (100%) with a concentration of 2560 μg/mL and the resulting stock solutions were further diluted in DMSO (100%). 5 μL of each antibiotic dilution were applied to the microdilution tray to reach final concentrations of 64 μg/mL to 0.008 μg/mL. One row of each well plate was left as a growth control without antibiotic substances and another row of the microdilution tray was used as sterility control (only MHB II-media). The antimicrobial effect of the solvent (DMSO) was tested by adding 5 μL DMSO to several wells without antibiotics.
(§5) Purity check and cell titer control were performed according to International Standard M07-A9 on Mueller-Hinton II Agar (Mueller Hinton II Broth, 15 g/L agar-agar).
(§6) Both microdilution trays and agar plates were incubated at 37° C. for 20 h and subsequently analyzed visually.
For orientation: Broth dilution looks for growth in wells or tubes with falling amounts of substance.

In the next assay the test system is S. typhimurium TA100. The assay is described as follows: Microdilution assay, MIC. The following applies: Salmonella enterica, 20 h, read-out: MIC S. typhimurium TA100. Here is the method: as §1, §2, §3, §4, §5, §6
Assay [1] has as its system Micrococcus luteus DSM1790. The assay is described as follows: Microdilution assay, MIC. The following applies: DSM1790, 20 h, read-out: MIC M. luteus DSM1790. Here is the method: as §1, §2, §3, §4, §5, §6
In another assay the test system is E. coli DSM 1116. The assay is described as follows: Microdilution assay, MIC. The following applies: Escherichia coli, DSM1116, 20 h, read-out: MIC E. coli DSM1116. Here is the method: as §1, §2, §3, §4, §5, §6
In assay [2] the test system is Acinetobacter baumannii PEG 10-12-26. Description: MHK against further strains (Table 2). The following applies: Nr. 22 Acinetobacter baumannii PEG 10-12-26, clinical isolate. Here is the method: as §1, §2
Assay [3] deals with Enterobacter cloacae PEG-10-52-78. The assay is described as follows: MHK against further strains (Table 2). The following applies: Nr. 17 Enterobacter cloacae PEG-10-52-78, clinical isolate. Here is the method:
as §1, §2

For assay [4], the system named is Pseudomonas aeruginosa PEG-10-47-57. Description: MHK against further strains (Table 2). The following applies: Nr. 20 Pseudomonas aeruginosa PEG-10-47-57, clinical isolate. Here is the method:
as §1, §2

Assay [5] deals with Klebsiella oxytoca PEG-10-45-54. Description: MHK against further strains (Table 2). The following applies: Nr. 16 Klebsiella oxytoca PEG-10-45-54, clinical isolate; KBE/ml 4.40E+05. Here is the method:
as §1, §2

Assay [6] concerns Enterobacter asburiae PEG-13-74-62. Description: MHK against further strains (Table 2). The following applies: Nr. 19 Enterobacter asburiae PEG-13-74-62, clinical isolate; KBE/ml 8.20E+05. Here is the method: as §1, §2
In assay [7] the test system is Klebsiella pneumoniae PEG-10-48-8. Description: MHK against further strains (Table 2). The following applies: Nr. 12 Klebsiella pneumoniae PEG-10-48-8, clinical isolate. Here is the method: as §1, §2
Assay [8] has as its system Enterobacter aerogenes 220-1-22. Description: MHK against further strains (Table 2). The following applies: Nr. 18 Enterobacter aerogenes 220-1-22, clinical isolate. Here is the method: as §1, §2
In assay [9] the test system is Escherichia coli 100-2-49. The assay is described as follows: MHK against further strains (Table 2). The following applies: Nr. 2 Escherichia coli 100-2-49, clinical isolate; KBE/ml 3.80E+05. Here is the method:
as §1, §2

Assay [10] deals with Staphylococcus aureus PEG 10-38-22. Description: MHK against further strains (Table 2). The following applies: Nr. 9 Staphylococcus aureus PEG 10-38-22, clinical isolate. Here is the method:
as §1, §2

The test system of assay [11] is Klebsiella pneumoniae PEG-10-75-61. Description: MHK against further strains (Table 2). The following applies: Nr. 13 Klebsiella pneumoniae PEG-10-75-61, clinical isolate; KBE/ml 4.00E+05. Here is the method: as §1, §2
Assay [12] concerns Pseudomonas aeruginosa PEG-10-44-76. Description: MHK against further strains (Table 2). The following applies: Nr. 21 Pseudomonas aeruginosa PEG-10-44-76, clinical isolate. Here is the method:
as §1, §2

Assay [13] relates to Klebsiella pneumoniae PEG-10-90-74. The assay is described as follows: MHK against further strains (Table 2). The following applies: Nr. 5 Klebsiella pneumoniae PEG-10-90-74, clinical isolate; KBE/ml 4.00E+05. Here is the method:
as §1, §2

The test system of assay [14] is Escherichia coli 100-2-56. Description: MHK against further strains (Table 2). The following applies: Nr. 3 Escherichia coli 100-2-56, clinical isolate. Here is the method: as §1, §2
For assay [15], the system named is Staphylococcus aureus PEG 13-18-19. Description: MHK against further strains (Table 2). The following applies: Nr. 26 Staphylococcus aureus PEG 13-18-19, clinical isolate. Here is the method:
as §1, §2

Assay [16] concerns Acinetobacter baumannii PEG 10-57-24. The assay is described as follows: MHK against further strains (Table 2). The following applies: Nr. 24 Acinetobacter baumannii PEG 10-57-24, clinical isolate. Here is the method:
as §1, §2

In assay [17] the test system is Klebsiella pneumoniae 310-1-54. Description: MHK against further strains (Table 2). The following applies: Nr. 14 Klebsiella pneumoniae 310-1-54, clinical isolate. Here is the method:
as §1, §2

In assay [18] the test system is Pseudomonas aeruginosa ATCC 27853. The assay is described as follows: MHK against further strains (Table 2). The following applies: Nr. 6 Pseudomonas aeruginosa ATCC 27853; KBE/ml 5.60E+05. Here is the method: as §1, §2
The subject of assay [19] is Escherichia coli ATCC 25922. Description: MHK against further strains (Table 2). The following applies: Nr. 1 Escherichia coli ATCC 25922; KBE/ml 2.80E+05. Here is the method:
as §1, §2

The test system of assay [20] is Staphylococcus aureus PEG 13-71-26. The assay is described as follows: MHK against further strains (Table 2). The following applies: Nr. 27 Staphylococcus aureus PEG 13-71-26, clinical isolate. Here is the method:
as §1, §2

As usually defined, the MIC is the lowest concentration that inhibits growth of the organism. For the molecule `COc1c(NC(=O)c2ccc(NC(=O)c3ccc(NC(=O)[C@@H](CN(C)C)NC(=O)c4ccc(NC(=O)/C(C)=C/c5ccc(O)cc5)cc4)cc3)c(OC)c2O)ccc(C(=O)O)c1O` [Compound 16, D-DMDAP-Albicidin], the MIC with Bacillus subtilis DSM10 is 1000 µg/mL (≈ 1160 µM); in the assay on S. typhimurium TA100 it was 250 µg/mL (≈ 290 µM); in assay [1], at least 8000 µg/mL; in the assay on E. coli DSM 1116 it was 500 µg/mL (≈ 581 µM). For the same molecule, the MHK in assay [2], in assay [3], in assay [4], in assay [5], in assay [6] and in [7] was 32 mg/L throughout. Further, the MHK in assay [8], in assay [9], in assay [10], in assay [11], in assay [12] and in [13] was 32 mg/L throughout. Besides, the MHK in assay [14] amounted to 32 mg/L; in assay [15], 32 mg/L; in assay [16] it was 32 mg/L; in assay [17] it was 32 mg/L; in assay [18], 32 mg/L; in assay [19], 16 mg/L. For the same molecule, the MHK in assay [20] amounted to 32 mg/L.

As to `COc1c(NC(=O)c2ccc(NC(=O)c3ccc(NC(=O)C(Cc4c[nH]nn4)NC(=O)c4ccc(NC(=O)/C(C)=C/c5ccc(O)cc5)cc4)cc3)c(OC)c2O)ccc(C(=O)O)c1O` [Compound 3, L-Azahis-Albicidin], the MIC in the assay on Bacillus subtilis DSM10 is 125 µg/mL (≈ 141 µM); with S. typhimurium TA100, at most 16 µg/mL; in assay [1] it was 500 µg/mL (≈ 565 µM); with E. coli DSM 1116, at most 16 µg/mL. For the same molecule, the MHK in [2] amounted to 16 mg/L; in [3] it was 32 mg/L; in [4] it was 4 mg/L; in assay [5], 0.5 mg/L; in [6], 32 mg/L; in assay [7], 32 mg/L. Besides, the MHK in [8] was found to be 4 mg/L; in [9] it was 0.063 mg/L; in assay [10] it was 2 mg/L; in [11], 32 mg/L; in assay [12], 0.5 mg/L; in [13], 32 mg/L. For the same molecule, the MHK in assay [14] was 0.25 mg/L; in assay [15], 0.5 mg/L; in [16], 1 mg/L; in assay [17], 32 mg/L; in assay [18], 1 mg/L; in [19], 0.008 mg/L. For the same molecule, the MHK in assay [20] stood at 0.125 mg/L.

`COc1c(NC(=O)c2ccc(NC(=O)c3ccc(NC(=O)[C@H](CN(C)C)NC(=O)c4ccc(NC(=O)/C(C)=C/c5ccc(O)cc5)cc4)cc3)c(OC)c2O)ccc(C(=O)O)c1O` [Compound 2, L-DMDAP-Albicidin]: the MIC is 125 µg/mL (≈ 145 µM) with Bacillus subtilis DSM10, 31 µg/mL (≈ 36 µM) in the assay on S. typhimurium TA100, 2000 µg/mL (≈ 2320 µM) in [1] and 125 µg/mL (≈ 145 µM) in the assay on E. coli DSM 1116. Moreover, the MHK in assay [2], in assay [3], in assay [4], in assay [5], in assay [6] and in [7] was 32 mg/L each time. In addition, the MHK in assay [8], in assay [9], in [10], in [11], in [12] and in assay [13] was 32 mg/L each time. The MHK stood at 32 mg/L in assay [14]; 32 mg/L in assay [15]; 32 mg/L in assay [16]; 32 mg/L in assay [17]; 32 mg/L in [18]; 0.125 mg/L in assay [19]. Besides, in assay [20], the MHK turned out to be 32 mg/L.

As to `COc1c(NC(=O)c2ccc(NC(=O)c3ccc(NC(=O)[C@H](Cc4c[nH]cn4)NC(=O)c4ccc(NC(=O)/C(C)=C/c5ccc(O)cc5)cc4)cc3)c(OC)c2O)ccc(C(=O)O)c1O` [Compound 1, L-His-albicidin], the MIC with Bacillus subtilis DSM10 was determined as 500 µg/mL (≈ 566 µM); in the assay with S. typhimurium TA100, 31 µg/mL (≈ 35.1 µM); in assay [1] it was 4000 µg/mL (≈ 4530 µM); with E. coli DSM 1116, 63 µg/mL (≈ 71.3 µM). For the same molecule, the MHK turned out to be 16 mg/L in assay [2]; 32 mg/L in assay [3]; 8 mg/L in [4]; 4 mg/L in [5]; 32 mg/L in assay [6]; 32 mg/L in assay [7]. The MHK in assay [8] stood at 32 mg/L; in assay [9], 0.5 mg/L; in assay [10], 32 mg/L; in assay [11], 32 mg/L; in assay [12], 4 mg/L; in assay [13], 32 mg/L. The MHK in assay [14] was determined as 2 mg/L; in [15], 8 mg/L; in [16] it was 2 mg/L; in assay [17] it was 32 mg/L; in [18] it was 2 mg/L; in [19], 0.063 mg/L. The MHK in assay [20] came to 4 mg/L.
